Experimental data taken from article PMC10287695, “Non-covalent inhibitors of thioredoxin glutathione reductase with schistosomicidal activity in vivo” (Nature Communications, 2023).
Several values for one entry are separate records, joined by “and”; a condition that tells them apart may be missing. Equal entries are not always repeated.

What was measured:
[1] = target: T1, TGR (Schistosoma mansoni, UniProt Q962Y6); experiment: Reversibility by jump dilution; type: biochemical
T1 construct: made in house
T1 sequence (Q962Y6 1-598): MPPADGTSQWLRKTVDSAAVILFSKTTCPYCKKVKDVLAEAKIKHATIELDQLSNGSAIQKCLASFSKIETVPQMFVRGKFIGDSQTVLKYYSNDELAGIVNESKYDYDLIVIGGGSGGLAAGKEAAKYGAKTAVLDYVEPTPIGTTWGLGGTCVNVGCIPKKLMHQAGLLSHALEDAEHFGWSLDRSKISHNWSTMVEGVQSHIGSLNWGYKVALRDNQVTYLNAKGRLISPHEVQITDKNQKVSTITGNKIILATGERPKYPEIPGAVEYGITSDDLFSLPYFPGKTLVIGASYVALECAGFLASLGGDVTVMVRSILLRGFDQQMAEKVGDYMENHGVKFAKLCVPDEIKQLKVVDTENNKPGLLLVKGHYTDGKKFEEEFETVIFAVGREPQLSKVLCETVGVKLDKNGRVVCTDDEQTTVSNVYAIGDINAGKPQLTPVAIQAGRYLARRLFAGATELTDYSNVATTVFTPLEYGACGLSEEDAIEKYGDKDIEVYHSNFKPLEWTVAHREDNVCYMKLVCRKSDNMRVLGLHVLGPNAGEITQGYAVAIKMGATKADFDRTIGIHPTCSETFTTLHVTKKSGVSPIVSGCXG
Method: A reaction of 370 nM TGR, 100 µM NADPH, and 250 µM inhibitor was incubated for 15 min at room temperature. A 100x dilution of the reaction was made and the activity was determined immediately and after 60 min.

[2] = target: T1, TGR; experiment: Time dependence of inhibition; type: biochemical; design: avg % inhib, 0.5 hr / avg % inhib, 1 hr / avg % inhib, 2 hr / avg % inhib, 3 hr / avg % inhib, 6 hr / avg % inhib, 24 hr: tested at 50 µM; settings: panel d Time Dependence
Method: TGR was incubated at room temperature (up to 6 h) and at 4 °C for 6 to 24 h with 50 µM inhibitor and 100 µM NADPH for the indicated times. Then DTNB (3 mM) and NADPH (100 µM) were added, and the reaction was monitored at A412 for 5 min. The assay was done in triplicate.

[3] = target: T1, TGR; experiment: Thermal shift assay (TSA); type: binding; design: key to Avg. Tm / Tm, replicate 1-3: Tm in °C, from a 25–95 °C melt curve
Method: Samples were prepared by using a final concentration of 0.25 mg/ml TGR diluted in TGR reaction buffer to the desired volume. To evaluate reduced TGR, 500 µM NADPH was added. […] After the preincubation period, 20 µL samples were pipetted into a BioRad un-skirted PCR 96 well plate and sealed with MicroAmp^TM Optical Adhesive film. The plate was then centrifuged for 5 min at 1000 × g. TSA was carried out using a BioRad CFX Connect qPCR instrument with a melt curve setting of 25 − 95 °C, in increments of 0.5 °C/10 seconds. The SYBR green channel was used to detect fluorescence as the wavelength of flavin fluorescence overlaps with that of SYBR green. BioRad CFX Maestro 5.2 was used to analyze TSA data.

[4] = target: T2, TGR (Schistosoma mansoni, UniProt Q962Y6, X597U); experiment: NADPH consumption (oxidase activity); type: biochemical, S. mansoni; settings: replicates
T2 construct: made in house
Procedure, shortened: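 Enzyme (500 nM) preincubated 30 min with compound (TRi-1, Stattic 50 µM; AF 20 µM) and 100 µM NADPH, desalted, then mixed with 100 µM NADPH; NADPH consumption read at 340 nm. Other compounds (50 µM) run without desalting, preincubation 30 min or 2 h.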

[5] = system: S. japonicum adult worms; experiment: Schistosomicidal activity ex vivo, S. japonicum adult worms; type: cell-based
Method: Three-week old, female Swiss-Webster mice obtained from the Charles River were housed in the Comparative Research Center of Rush University Medical Center. Mice were infected by percutaneous tail exposure to about 200 S. mansoni or 50 S. japonicum cercaria for adult worms and about 1000 cercaria for juvenile S. mansoni worms through natural transdermal penetration of the cercariae for 1 h[81].
DMSO formulated compounds were diluted with phenol red free M199 medium or RPMI medium for NTS or juvenile and adult worms, respectively, at <1% DMSO final concentrations. NTS, juvenile and adult worms from overnight cultures were tested against compounds in triplicate. Controls were treated with DMSO alone or 5 µM AF as a positive control in appropriate medium. […] Schistosome viabilities in the presence of the compounds were assessed using this formula: % Viability = Averages of Test / Averages of DMSO Control x 100.

[6] = before dilution (-15), list for plotting

**Q.** Which “% Inhibition (ID list), D0” value ([1]; D0: diluted 1:100, activity determined immediately, list for plotting) does the source give for `Cc1oc(-c2ccc3c(c2)OCO3)nc1CN[C@@H]1C[C@@H]2C[C@H]([C@H]1C)C2(C)C` [Compound 1] here?
**A.** -3.0% and -6.3% and -11.0%

**Q.** And the “% Inhibition (ID list), D60” value ([1]; D60: diluted 1:100, activity determined after 60 min, list for plotting)?
**A.** -11.2% and -8.3% and -14.2%

**Q.** What about the “Inhibitor (rate), 0 min” value ([1]; [0, D0]: 15 min preincubation inhibitor + TGR + NADPH, diluted 1:100, then activity determined immediately, raw rate) of the same compound?
**A.** 0.04476 and 0.04528 and 0.04727

**Q.** What about the “% Activity, 0 min” value ([1]; [0, D0]: 15 min preincubation inhibitor + TGR + NADPH, diluted 1:100, then activity determined immediately, relative to DMSO) of the same compound?
**A.** 96.9881% and 96.3404% and 109.043%

**Q.** What about the “Inhibitor (rate), 60 min” value ([1]; [60, D60]: 15 min preincubation inhibitor + TGR + NADPH, diluted 1:100, then activity determined after 60 min, raw rate) of the same compound?
**A.** 0.04331 and 0.04649 and 0.04721

**Q.** And the “% Activity, 60 min” value ([1]; [60, D60]: 15 min preincubation inhibitor + TGR + NADPH, diluted 1:100, then activity determined after 60 min, relative to DMSO)?
**A.** 100.185% and 104.308% and 101.157%

**Q.** And the “Inhibitor (rate), -15” value ([1]; [-15]: 15 min preincubation inhibitor + TGR + NADPH, then activity determined, raw rate, replicates)?
**A.** 0.02911 and 0.02756 and 0.02942

**Q.** And the “% Activity, -15” value ([1]; [-15]: 15 min preincubation inhibitor + TGR + NADPH, then activity determined, relative to DMSO, replicates)?
**A.** 84.4748% and 76.3012% and 82.9433%

**Q.** And the “% Activity (ID list)” value [1, 6]?
**A.** 84.5% and 76.3% and 82.9%

**Q.** What about the “% Inhibition (ID list)” value [1, 6] of the same compound?
**A.** 15.5% and 23.7% and 17.1%

**Q.** And the “rate, 0.5 hr” value ([2]; 0.5 hr)?
**A.** 0.0552 and 0.05671 and 0.05782

**Q.** What about the “avg % inhib, 0.5 hr” value ([2]; 0.5 hr, average) of the same compound?
**A.** -1.077%

**Q.** What about the “% inhib, 0.5 hr” value ([2]; 0.5 hr, replicates) of the same compound?
**A.** 0.01811% and -0.5318% and -2.718%

**Q.** And the “rate, 1 hr” value ([2]; 1 hr)?
**A.** 0.04988 and 0.05076 and 0.05122

**Q.** What about the “avg % inhib, 1 hr” value ([2]; 1 hr, average) of the same compound?
**A.** 1.283%

**Q.** And the “% inhib, 1 hr” value ([2]; 1 hr, replicates)?
**A.** 2.919% and -0.8544% and 1.783%

**Q.** What about the “rate, 2 hr” value ([2]; 2 hr) of the same compound?
**A.** 0.046 and 0.04511 and 0.04817

**Q.** What about the “avg % inhib, 2 hr” value ([2]; 2 hr, average) of the same compound?
**A.** 0.9089%

**Q.** What about the “% inhib, 2 hr” value ([2]; 2 hr, replicates) of the same compound?
**A.** -0.9879% and 3.652% and 0.06224%

**Q.** What about the “rate, 3 hr” value ([2]; 3 hr) of the same compound?
**A.** 0.03818 and 0.03843 and 0.03937

**Q.** And the “avg % inhib, 3 hr” value ([2]; 3 hr, average)?
**A.** 4.332%

**Q.** What about the “% inhib, 3 hr” value ([2]; 3 hr, replicates) of the same compound?
**A.** 4.359% and 4.498% and 4.139%

**Q.** And the “rate, 6 hr” value ([2]; 6 hr)?
**A.** 0.02323 and 0.02106 and 0.02443

**Q.** What about the “avg % inhib, 6 hr” value ([2]; 6 hr, average) of the same compound?
**A.** 12.8202%

**Q.** And the “% inhib, 6 hr” value ([2]; 6 hr, replicates)?
**A.** 11.8406% and 18.1182% and 8.502%

**Q.** What about the “rate, 24 hr” value ([2]; 24 hr) of the same compound?
**A.** 0.0142 and 0.01351 and 0.01414

**Q.** What about the “avg % inhib, 24 hr” value ([2]; 24 hr, average) of the same compound?
**A.** 28.9728%

**Q.** What about the “% inhib, 24 hr” value ([2]; 24 hr, replicates) of the same compound?
**A.** 24.2263% and 31.8365% and 30.8557%

**Q.** And the “Avg. Tm” value ([3]; TGR + 100 µM compound)?
**A.** 73.67

**Q.** What about the “Avg. Tm, + 500 µM NADPH” value ([3]; TGR + 100 µM compound + 500 µM NADPH) of the same compound?
**A.** 73.5

**Q.** And the “Tm, replicate 1-3, + 500 µM NADPH” value ([3]; TGR + 100 µM compound + 500 µM NADPH, single replicates, in °C (unit assumed))?
**A.** 73.5

**Q.** What about the “Tm, replicate 1-3” value ([3]; TGR + 100 µM compound, single replicates) of the same compound?
**A.** 73.5 (2×) and 74

**Q.** And the “effect on Tm of oxidized TGR” value ([3]; without NADPH)?
**A.** Neither fast 6-9 nor slow TGR inhibitors 1, 3, 5 affected the Tm

**Q.** And the “NADPH consumption (rate/ΔOD340)” value [4]?
**A.** -0.000815 and -0.0007737 and -0.0007308

**Q.** And the “LD50 ex vivo S. japonicum adult” value ([5]; 48 h exposure)?
**A.** 19.6 ± 1.91 µM

**Q.** And the viability at 5 µM ([5]; Schistosoma japonicum, S. japonicum adult worms, 48 hr, Conc. 5 µM)?
**A.** 87.9%

**Q.** And the viability at 15 µM ([5]; Schistosoma japonicum, S. japonicum adult worms, 48 hr, Conc. 15 µM)?
**A.** 56.2%

**Q.** What about the viability at 30 µM ([5]; Schistosoma japonicum, S. japonicum adult worms, 48 hr, Conc. 30 µM) of the same compound?
**A.** 19.2%
